Measurements taken from PubChem BioAssay (NCI).
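48-hour exposure; five concentrations; linearly interpolated endpoints. TGI marks complete inhibition of growth.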

Assays:
Test in all cases: growth of human tumour cells (NCI), 48 h
786-0 renal = system: 786-0 renal
A498 renal = system: A498 renal
A549 NSCLC = system: A549 NSCLC
ACHN renal = system: ACHN renal
BT-549 breast = system: BT-549 breast
CAKI-1 renal = system: CAKI-1 renal
CCRF-CEM leukemia = system: CCRF-CEM leukemia
COLO 205 colon = system: COLO 205 colon
DU-145 prostate = system: DU-145 prostate
EKVX NSCLC = system: EKVX NSCLC
HCC-2998 colon = system: HCC-2998 colon
HCT-116 colon = system: HCT-116 colon
HCT-15 colon = system: HCT-15 colon
HL-60(TB) leukemia = system: HL-60(TB) leukemia
HOP-62 NSCLC = system: HOP-62 NSCLC
HOP-92 NSCLC = system: HOP-92 NSCLC
HS 578T breast = system: HS 578T breast
HT29 colon = system: HT29 colon
IGROV1 ovarian = system: IGROV1 ovarian
K-562 leukemia = system: K-562 leukemia
KM12 colon = system: KM12 colon
LOX IMVI melanoma = system: LOX IMVI melanoma
M14 melanoma = system: M14 melanoma
MALME-3M melanoma = system: MALME-3M melanoma
MCF7 breast = system: MCF7 breast
MDA-MB-231 breast = system: MDA-MB-231 breast
MDA-MB-435 = system: MDA-MB-435
MDA-N = system: MDA-N
MOLT-4 leukemia = system: MOLT-4 leukemia
NCI-H226 lung = system: NCI-H226 lung
NCI-H23 lung = system: NCI-H23 lung
NCI-H460 lung = system: NCI-H460 lung
NCI-H522 lung = system: NCI-H522 lung
NCI/ADR-RES ovarian = system: NCI/ADR-RES ovarian
OVCAR-3 ovarian = system: OVCAR-3 ovarian
OVCAR-4 ovarian = system: OVCAR-4 ovarian
OVCAR-5 ovarian = system: OVCAR-5 ovarian
OVCAR-8 ovarian = system: OVCAR-8 ovarian
PC-3 prostate = system: PC-3 prostate
RPMI-8226 leukemia = system: RPMI-8226 leukemia
RXF 393 renal = system: RXF 393 renal
SF-268 CNS = system: SF-268 CNS
SF-295 CNS = system: SF-295 CNS
SF-539 CNS = system: SF-539 CNS
SK-MEL-2 melanoma = system: SK-MEL-2 melanoma
SK-MEL-28 melanoma = system: SK-MEL-28 melanoma
SK-MEL-5 melanoma = system: SK-MEL-5 melanoma
SK-OV-3 ovarian = system: SK-OV-3 ovarian
SN12C renal = system: SN12C renal
SNB-19 CNS = system: SNB-19 CNS
SR leukemia = system: SR leukemia
SW-620 colon = system: SW-620 colon
T-47D breast = system: T-47D breast
TK-10 renal = system: TK-10 renal
U251 CNS = system: U251 CNS
UACC-257 melanoma = system: UACC-257 melanoma
UACC-62 melanoma = system: UACC-62 melanoma
UO-31 renal = system: UO-31 renal
SNB-75 CNS = system: SNB-75 CNS

**Q.** For `O=C(CCc1ccc(O)c(O)c1)OCCc1ccccc1`, which TGI (786-0 renal) is on record?
**A.** The TGI was greater than 100 µM.

**Q.** And the TGI (A498 renal)?
**A.** Its TGI is greater than 100 µM.

**Q.** What about the TGI (A549 NSCLC) of the same compound?
**A.** The TGI was greater than 100 µM.

**Q.** And the TGI (ACHN renal)?
**A.** Its TGI is greater than 100 µM.

**Q.** And the TGI (BT-549 breast)?
**A.** Its TGI is greater than 100 µM.

**Q.** What about the TGI (CAKI-1 renal) of the same compound?
**A.** The TGI was greater than 100 µM.

**Q.** And the TGI (CCRF-CEM leukemia)?
**A.** The TGI was 76.3 µM.

**Q.** And the TGI (COLO 205 colon)?
**A.** Its TGI is greater than 100 µM.

**Q.** And the TGI (DU-145 prostate)?
**A.** Its TGI is greater than 100 µM.

**Q.** And the TGI (EKVX NSCLC)?
**A.** Its TGI is greater than 100 µM.

**Q.** What about the TGI (HCC-2998 colon) of the same compound?
**A.** The TGI was greater than 100 µM.

**Q.** What about the TGI (HCT-116 colon) of the same compound?
**A.** Its TGI is greater than 100 µM.

**Q.** What about the TGI (HCT-15 colon) of the same compound?
**A.** The TGI was greater than 100 µM.

**Q.** And the TGI (HL-60(TB) leukemia)?
**A.** The TGI was 17.3 µM.

**Q.** And the TGI (HOP-62 NSCLC)?
**A.** Its TGI is greater than 31.6 µM.

**Q.** And the TGI (HOP-92 NSCLC)?
**A.** Its TGI is greater than 100 µM.

**Q.** What about the TGI (HS 578T breast) of the same compound?
**A.** The TGI was greater than 100 µM.

**Q.** And the TGI (HT29 colon)?
**A.** Its TGI is greater than 100 µM.

**Q.** And the TGI (IGROV1 ovarian)?
**A.** The TGI was greater than 100 µM.

**Q.** And the TGI (K-562 leukemia)?
**A.** Its TGI is greater than 57.5 µM.

**Q.** And the TGI (KM12 colon)?
**A.** Its TGI is greater than 100 µM.

**Q.** What about the TGI (LOX IMVI melanoma) of the same compound?
**A.** Its TGI is 54.8 µM.

**Q.** And the TGI (M14 melanoma)?
**A.** The TGI was greater than 100 µM.

**Q.** What about the TGI (MALME-3M melanoma) of the same compound?
**A.** Its TGI is greater than 100 µM.

**Q.** What about the TGI (MCF7 breast) of the same compound?
**A.** Its TGI is greater than 100 µM.

**Q.** And the TGI (MDA-MB-231 breast)?
**A.** The TGI was greater than 100 µM.

**Q.** And the TGI (MDA-MB-435)?
**A.** The TGI was 40.6 µM.

**Q.** And the TGI (MDA-N)?
**A.** The TGI was 30.4 µM.

**Q.** And the TGI (MOLT-4 leukemia)?
**A.** The TGI was greater than 83.4 µM.

**Q.** What about the TGI (NCI-H226 lung) of the same compound?
**A.** The TGI was greater than 100 µM.

**Q.** And the TGI (NCI-H23 lung)?
**A.** The TGI was greater than 100 µM.

**Q.** And the TGI (NCI-H460 lung)?
**A.** The TGI was greater than 100 µM.

**Q.** And the TGI (NCI-H522 lung)?
**A.** Its TGI is 17.8 µM.

**Q.** What about the TGI (NCI/ADR-RES ovarian) of the same compound?
**A.** The TGI was greater than 100 µM.

**Q.** And the TGI (OVCAR-3 ovarian)?
**A.** Its TGI is greater than 100 µM.

**Q.** What about the TGI (OVCAR-4 ovarian) of the same compound?
**A.** Its TGI is greater than 65.6 µM.

**Q.** And the TGI (OVCAR-5 ovarian)?
**A.** Its TGI is greater than 100 µM.

**Q.** What about the TGI (OVCAR-8 ovarian) of the same compound?
**A.** Its TGI is greater than 100 µM.

**Q.** And the TGI (PC-3 prostate)?
**A.** The TGI was greater than 100 µM.

**Q.** What about the TGI (RPMI-8226 leukemia) of the same compound?
**A.** The TGI was greater than 86.6 µM.

**Q.** What about the TGI (RXF 393 renal) of the same compound?
**A.** The TGI was greater than 100 µM.

**Q.** And the TGI (SF-268 CNS)?
**A.** The TGI was greater than 100 µM.

**Q.** What about the TGI (SF-295 CNS) of the same compound?
**A.** Its TGI is greater than 100 µM.

**Q.** What about the TGI (SF-539 CNS) of the same compound?
**A.** Its TGI is 54.5 µM.

**Q.** And the TGI (SK-MEL-2 melanoma)?
**A.** The TGI was greater than 100 µM.

**Q.** What about the TGI (SK-MEL-28 melanoma) of the same compound?
**A.** Its TGI is greater than 100 µM.

**Q.** And the TGI (SK-MEL-5 melanoma)?
**A.** The TGI was greater than 100 µM.

**Q.** And the TGI (SK-OV-3 ovarian)?
**A.** Its TGI is greater than 100 µM.

**Q.** What about the TGI (SN12C renal) of the same compound?
**A.** Its TGI is greater than 100 µM.

**Q.** What about the TGI (SNB-19 CNS) of the same compound?
**A.** The TGI was greater than 100 µM.

**Q.** What about the TGI (SR leukemia) of the same compound?
**A.** Its TGI is greater than 78.2 µM.

**Q.** And the TGI (SW-620 colon)?
**A.** Its TGI is greater than 62.2 µM.

**Q.** What about the TGI (T-47D breast) of the same compound?
**A.** The TGI was greater than 100 µM.

**Q.** And the TGI (TK-10 renal)?
**A.** Its TGI is greater than 100 µM.

**Q.** And the TGI (U251 CNS)?
**A.** The TGI was greater than 100 µM.

**Q.** What about the TGI (UACC-257 melanoma) of the same compound?
**A.** The TGI was greater than 100 µM.

**Q.** And the TGI (UACC-62 melanoma)?
**A.** Its TGI is greater than 100 µM.

**Q.** What about the TGI (UO-31 renal) of the same compound?
**A.** Its TGI is greater than 100 µM.

**Q.** Which results are given for `CC(CC(=O)O)(CC(=O)O)c1ccccc1`?
**A.** TGI (786-0 renal): > 100 µM; TGI (A498 renal): > 100 µM; TGI (A549 NSCLC): > 100 µM; TGI (ACHN renal): > 100 µM; TGI (BT-549 breast): > 100 µM; TGI (CAKI-1 renal): > 100 µM; TGI (CCRF-CEM leukemia): > 100 µM; TGI (COLO 205 colon): > 100 µM; TGI (DU-145 prostate): > 100 µM; TGI (EKVX NSCLC): > 100 µM; TGI (HCC-2998 colon): > 100 µM; TGI (HCT-116 colon): > 100 µM; TGI (HCT-15 colon): > 100 µM; TGI (HL-60(TB) leukemia): > 100 µM; TGI (HOP-62 NSCLC): > 100 µM; TGI (HOP-92 NSCLC): > 100 µM; TGI (HS 578T breast): > 100 µM; TGI (HT29 colon): > 100 µM; TGI (IGROV1 ovarian): > 100 µM; TGI (K-562 leukemia): > 100 µM; TGI (KM12 colon): > 100 µM; TGI (LOX IMVI melanoma): > 100 µM; TGI (M14 melanoma): > 100 µM; TGI (MALME-3M melanoma): > 100 µM; TGI (MCF7 breast): > 100 µM; TGI (MDA-MB-231 breast): > 100 µM; TGI (MDA-MB-435): > 100 µM; TGI (MDA-N): > 100 µM; TGI (NCI-H226 lung): > 100 µM; TGI (NCI-H23 lung): > 100 µM; TGI (NCI-H460 lung): > 100 µM; TGI (NCI-H522 lung): > 100 µM; TGI (NCI/ADR-RES ovarian): > 100 µM; TGI (OVCAR-3 ovarian): > 100 µM; TGI (OVCAR-4 ovarian): > 100 µM; TGI (OVCAR-5 ovarian): > 100 µM; TGI (OVCAR-8 ovarian): > 100 µM; TGI (PC-3 prostate): > 100 µM; TGI (RPMI-8226 leukemia): > 100 µM; TGI (RXF 393 renal): > 100 µM; TGI (SF-268 CNS): > 100 µM; TGI (SF-295 CNS): > 100 µM; TGI (SK-MEL-2 melanoma): > 100 µM; TGI (SK-MEL-28 melanoma): > 100 µM; TGI (SK-MEL-5 melanoma): > 100 µM; TGI (SK-OV-3 ovarian): > 100 µM; TGI (SN12C renal): > 100 µM; TGI (SNB-19 CNS): > 100 µM; TGI (SNB-75 CNS): > 100 µM; TGI (SR leukemia): > 100 µM; TGI (SW-620 colon): > 100 µM; TGI (T-47D breast): > 100 µM; TGI (TK-10 renal): > 100 µM; TGI (U251 CNS): > 100 µM; TGI (UACC-257 melanoma): > 100 µM; TGI (UACC-62 melanoma): > 100 µM; TGI (UO-31 renal): > 100 µM
